Source: US11236401B2, “Sensors for detection and quantification of microbiological protein secretion” (SenseUp GmbH, priority 2015, dated 2022)
Where a SMILES comes first, the peptide text is derived from it. Bridges are numbered along the chain shown (N, C = ends). [ ]: non-standard residue; d: D form. The star is where a group is joined. Ileψ(thiazoline)Cys = CC[C@H](C)[C@H](N)C1=N[C@H](C(=O)*)CS1; dOrn = NCCC[C@@H](N)C(=O)O

Legend:
[1] = test system: strain ATCC 13032 pSen0706; assay: In vivo EYFP fluorescence of sensor strain ATCC 13032 pSen0706 (cg0706 promoter) as a function of antibiotic concentration, BioLector; assay type: cell-based, Corynebacterium glutamicum; details: ATCC 13032 pSen0706 in CGXII medium, 24 hours; antibiotic added after 4 hours; Vancomycine 0; 1.25; 2.5; 5; 10; 15; 20 μg/ml; Bacitracin 0; 1; 4 μg/ml; excitation 485 nm, emission 520/10 nm; FIGS. 1 and 2
Method: (§1) c) Detection of the fluorescence as a function of the concentration of a compound that is characterized by an antibiotic activity due to its property to damage the membrane of a bacterial cell.
The examination of in vivo fluorescence emission was carried out by culturing the cells of strain ATCC 13032 pSen0706 with 0.8 ml CGXII medium (Keilhauer et al, 1993, J. Bacteriol. 175: 5595-603) in microtiter dimension (Flowerplate® MTP-48-B) in the BioLector system (m2p-labs GmbH, 52499 Baesweiler, Germany). This system allows for the parallel cultivation of 48 cultures and regular and automated optical measurements of the culture growth as well as the fluorescence. 10 cultures with cells of strain ATCC 13032 pSen0706 were inoculated to an OD of 0.1 and cultured for 24 hours. After 4 hours the antibiotic substances Vancomycine or Bacitracine were added to the cultures. Vancomycine-concentrations were adjusted to 0; 1.25; 2.5; 5; 10; 15; 20 μg/ml and Bacitracin-concentrations were adjusted to 0; 1; 4 μg/ml. Every 10 minutes the cell densities of cultures and the fluorescence were measured. The fluorescence was excited with light of wavelength 485 nm, the fluorescence emission measurement of EYFP was carried out at 520/10 nm. The fluorescence of the cultures has been digitally recorded by means of the BioLection V.2.4.1.0 software.

[2] = test system: strain ATCC 13032 pSen1325; assay: In vivo EYFP fluorescence of sensor strain ATCC 13032 pSen1325 (cg1325 promoter) as a function of antibiotic concentration, BioLector; assay type: cell-based, Corynebacterium glutamicum; details: ATCC 13032 pSen1325 in CGXII medium, 24 hours; antibiotic added after 4 hours; Vancomycine 0; 1.25; 2.5; 5; 10; 15; 20 μg/ml; Bacitracin 0; 0.25; 0.5; 1; 2; 4 μg/ml; excitation 485 nm, emission 520/10 nm
Method: as §1
The examination of in vivo fluorescence emission was carried out by culturing the cells of strain ATCC 13032 pSen1325 with 0.8 ml CGXII medium (Keilhauer et al, 1993, J. Bacteriol. 175: 5595-603) in microtiter dimension (Flowerplate® MTP-48-B) in the BioLector system (m2p-labs GmbH, 52499 Baesweiler, Germany). 13 cultures with cells of strain ATCC 13032 pSen1325 were inoculated to an OD of 0.1 and cultured for 24 hours. After 4 hours the antibiotic substances Vancomycine or Bacitracine were added to the cultures. Vancomycine-concentrations were adjusted to 0; 1.25; 2.5; 5; 10; 15; 20 μg/ml and Bacitracin-concentrations were adjusted to 0; 0.25; 0.5; 1; 2; 4 μg/ml. Every 10 minutes the cell densities of cultures and the fluorescence were measured. The fluorescence was excited with light of wavelength 485 nm, the fluorescence emission measurement of EYFP was carried out at 520/10 nm. The fluorescence of the cultures has been digitally recorded by means of the BioLection V.2.4.1.0 software.

Compound | fluorescence emission of cultures as a function of the concentration of the compound [1] | fluorescence emission of cultures as a function of the concentration of the compound [2]
CC[C@H](C)[C@H](N)C1=N[C@H](C(=O)N[C@@H](CC(C)C)C(=O)N[C@H](CCC(=O)O)C(=O)N[C@H](C(=O)N[C@H]2CCCCNC(=O)[C@H](CC(N)=O)NC(=O)[C@@H](CC(=O)O)NC(=O)[C@H](Cc3cnc[nH]3)NC(=O)[C@@H](Cc3ccccc3)NC(=O)[C@H]([C@@H](C)CC)NC(=O)[C@@H](CCCN)NC2=O)[C@@H](C)CC)CS1 [Bacitracine] ({Ileψ(thiazoline)Cys}-L[dE]IK[dOrn]I[dF]H[dD]N; lactam 4-C) | fluorescence emissions of cultures with different Vancomycine or Bacitracine concentrations also differs | fluorescence emissions of cultures with different Vancomycine or Bacitracine concentrations also differs
CN[C@H](CC(C)C)C(=O)N[C@H]1C(=O)N[C@@H](CC(N)=O)C(=O)N[C@H]2C(=O)N[C@H]3C(=O)N[C@H](C(=O)N[C@H](C(=O)O)c4cc(O)cc(O)c4-c4cc3ccc4O)[C@H](O)c3ccc(c(Cl)c3)Oc3cc2cc(c3O[C@@H]2O[C@H](CO)[C@@H](O)[C@H](O)[C@H]2O[C@H]2C[C@](C)(N)[C@H](O)[C@H](C)O2)Oc2ccc(cc2Cl)[C@H]1O [Vancomycine] | fluorescence emissions of cultures with different Vancomycine or Bacitracine concentrations also differs | fluorescence emissions of cultures with different Vancomycine or Bacitracine concentrations also differs
